Patent publication US10900018B2, “Means and methods for generation of breast stem cells” (Helmholtz Zentrum München—Deutsches Forschungszentrum Für …, priority 2015, dated 2021)

Key:
Type in all cases: cell-based, human
HMEC [1] = test: Inhibition of contraction: alveologenesis after detachment of attached collagen gels; details: donor M10
Protocol: (§1) For contraction assays, 5×10^3 HMEC were plated or 3×10^3 sorted B+ cells/400 μl collagen gel and 1×10^4 LP cells/400 μl collagen gel. At day 12 of culture, 2 ng/μl TGF-β1 (R&D Systems) was added to the culture medium once. For inhibition of contraction experiments, 3×10^3 HMEC (Donor M10) were plated/400 μl collagen gel, and the gels were left attached to the culture dish. At day 13 of culture, when structures had formed, gels were detached and 10 μM Blebbistatin or 5 μM Y-27632 were added to the culture medium every 24 hours. To determine the number of cells per gel, collagen gels were minced using a scalpel, digested with 300 U/ml collagenase I (Sigma) for 1 hour at 37° C., followed by 0.15% trypsin (5 minutes at 37° C.), and filtered to obtain single cells. Cells were counted with a hemocytometer. Images of structures in the gels were acquired on a Leica DM IL LED microscope equipped with a HiPlan 10×/0.22 PH1 objective and images of whole gels were taken with a Zeiss SteREO Lumar.V12 microscope with a NeoLumar S 0.8×objective (6.4× Zoom).

HMEC [2] = test: ELDA of branched structure-forming units in floating collagen gels after 2D-culture; details: 2D-culture in presence of 10 μM Forskolin, donor M4
Text: Mammary gland tissue was obtained from healthy women undergoing reduction mammoplasty at the Nymphenburg Clinic for Plastic and Aesthetic Surgery (Christian Gabka), in accordance with the regulations of the ethics committee of the Ludwig-Maximilian University Munich (proposal 397-12). Single cell suspensions of primary HMEC were generated as previously described with minor modifications ([…] et al., 2005). Briefly, the ductal tree was minced into about 1.0 mm^3 pieces and digested in collagenase I and hyaluronidase (both Sigma), and subsequently with Trypsin-EDTA and dispase (Life Technologies), and then cryopreserved. Before further processing, cells were filtered through a 40 μm strainer, to remove residual tissue fragments and cell aggregates. Cells were seeded in 2D on polystyrene cell culture plates or in collagen I gels in Mammary Epithelial Cell Growth Medium (MECGM, PromoCell) supplemented with 1% Pen/Strep (Invitrogen), 0.5% FCS (Pan Biotech), 3 μM Y-27632 (Biomol) and 10 μM Forskolin (Biomol), unless stated otherwise. After an establishment period of 5 days, medium was changed to MECGM supplemented with 1% Pen/Strep and 10 μM Forskolin, unless stated otherwise. […] Gels with at least one branched structure were counted as positive. […] Limiting dilutions were analyzed using a webtool, as described previously (Hu and Smyth, 2009).

freshly isolated HMEC = test: Structure formation by freshly isolated HMEC in floating collagen I gels
Text: Mammary gland tissue was obtained from healthy women undergoing reduction mammoplasty at the Nymphenburg Clinic for Plastic and Aesthetic Surgery (Christian Gabka), in accordance with the regulations of the ethics committee of the Ludwig-Maximilian University Munich (proposal 397-12). Single cell suspensions of primary HMEC were generated as previously described with minor modifications (Stingl et al., 2005). Briefly, the ductal tree was minced into about 1.0 mm^3 pieces and digested in collagenase I and hyaluronidase (both Sigma), and subsequently with Trypsin-EDTA and dispase (Life Technologies), and then cryopreserved. Before further processing, cells were filtered through a 40 μm strainer, to remove residual tissue fragments and cell aggregates. Cells were seeded in 2D on polystyrene cell culture plates or in collagen I gels in Mammary Epithelial Cell Growth Medium (MECGM, PromoCell) supplemented with 1% Pen/Strep (Invitrogen), 0.5% FCS (Pan Biotech), 3 μM Y-27632 (Biomol) and 10 μM Forskolin (Biomol), unless stated otherwise. After an establishment period of 5 days, medium was changed to MECGM supplemented with 1% Pen/Strep and 10 μM Forskolin, unless stated otherwise.
Single cell suspensions containing the desired amount of cells were quickly mixed with neutralizing solution, and acidified rat tail collagen I (Corning) was added, resulting in a final collagen I concentration of 1.3 mg/ml. Next, the gel mixture was plated into siloxane-coated 24-well or 48-well plates. After polymerization of the gel, medium with supplements was carefully added and gels were detached from the well. Attached and attached-to-floating gels were prepared in uncoated 24-well plates. Cells were maintained for 8 up to 20 days (shorter periods for quantification and longer periods for long term treatments).
Mammary gland tissue was obtained from healthy women undergoing reduction mammoplasty at the Nymphenburg Clinic for Plastic and Aesthetic Surgery (Prof. Christian Gabka), in accordance with the regulations of the ethics committee of the Ludwig-Maximilian University Munich (proposal 397-12). Single cell suspensions of primary HMEC were generated as previously described with minor modifications (Stingl et al., 2005). Briefly, the ductal tree was minced into about 1 mm^3 pieces and enzymatically digested in tissue digestion buffer (F12:DME/HEPES, 1.5% w/v BSA) supplemented with 1 μg/ml insulin, 300 U/ml collagenase and 100 U/ml hyaluronidase (all Sigma) at 37° C. over night. The stromal compartment was optionally separated by differential centrifugation and cryopreserved. The pellet enriched for epithelial cells was further dissociated in 0.15% Trypsin-EDTA and 5 mg/ml dispase (Life Technologies) and then cryopreserved. Before further processing, cells were filtered through a 40 μm strainer, to remove residual tissue fragments and cell aggregates. Freshly isolated primary HMEC were seeded in Mammary Epithelial Cell Growth Medium (MECGM, PromoCell) supplemented with 1% Pen/Strep (Invitrogen), 0.5% FCS (Pan Biotech), 3 μM Y-27632 (Biomol) and 10 μM Forskolin (Biomol), unless otherwise stated. After an establishment period of 5 days, medium was changed to MECGM supplemented 1% Pen/Strep and 10 μM Forskolin, unless otherwise stated. Upon establishment, medium was replaced every 3-4 days. Cells were maintained in 5% CO2, 3% O2 for the whole culture period. […]

[3] = system: B+ cells (CD10+/CD49fhi/EpCAM−); test: Contraction of floating collagen I gels containing B+ cell derived TDLU-like structures
Protocol: as §1, with “At day 12 of culture, 2 ng/μl TGF-β1 (R&D Systems) was added to the culture medium once.” left out
(§2) Size of gels, structures, and cells was determined with the ImageJ tool for measurement of areas. Quantification of structures was carried out using the ImageJ cell counter. Structures with at least two branching points were considered as branched. For branching point analysis, branches were traced, one main branch was set, and one branching point was counted for each side-branch.

LP cells (CD49f+/EpCAM+) = test: Contraction of floating collagen I gels containing LP-derived spheres; details: 2.0 ng/ml TGF-β1 once
Protocol: as §1, with “At day 12 of culture, 2 ng/μl TGF-β1 (R&D Systems) was added to the culture medium once.” left out
as §2

[4] = 10 μM Forskolin, continuous treatment, donor M8

Cc1ccc2c(c1)C(=O)C1(O)CCN(c3ccccc3)C1=N2 (stereo not shown) [Blebbistatin]
acquisition of alveolar morphology after gel detachment (HMEC [1]; 10 μM Blebbistatin every 24 hours from detachment at day 13): prevented

C=C[C@@]1(C)CC(=O)[C@]2(O)[C@@]3(C)[C@@H](O)CCC(C)(C)[C@@H]3[C@H](O)[C@H](OC(C)=O)[C@@]2(C)O1 [Forskolin]
cells giving rise to a TDLU-like structure (B-SFU) (HMEC [2]; passage 1): 1/290
cells giving rise to a TDLU-like structure (B-SFU) (HMEC [2]; passage 3): 1/250
increase of formation of TDLU-like branched structures (freshly isolated HMEC; [4]): approximately 12 fold
increase of formation of non-branched structures (mostly spheres) (freshly isolated HMEC; [4]): approximately 1.5 fold
increase of overall branched structure-forming potential (freshly isolated HMEC; [4]): 3 fold

C[C@@H](N)[C@H]1CC[C@H](C(=O)Nc2ccncc2)CC1 [Y-27632]
increase of branched structure formation (freshly isolated HMEC; 3 μM Y-27632, added upon plating, removed after 5 days, floating collagen I gels, day 14, donor M8): approximately 5 fold
effect of continuous treatment on morphogenesis (freshly isolated HMEC; continuous Y-27632 after 5 days of initial culture, data not shown): dissolution of cell-cell adhesion
acquisition of alveolar morphology after gel detachment (HMEC [1]; 5 μM Y-27632 every 24 hours from detachment at day 13): prevented

TGF-β1: recombinant TGF-β1, morphogen that promotes contractility (R&D Systems)
average cell size in treated structures versus controls ([3]; TGF-β1-treated B+ derived structures, donor M8, phalloidin F-actin staining): significantly smaller
increase of contraction of the gels ([3]; one-time treatment with 2.0 ng/ml recombinant TGF-β1 at day 12 of culture, gel size 2 days later, donors M3, M10): approximately 2 fold
effect on size of gels (LP cells (CD49f+/EpCAM+); LP-derived spheres, donor M10): did not have an effect
effect on size of gels (LP cells (CD49f+/EpCAM+); M3 luminal cells): slight contraction
